Data set [1] deals with mammalian cell lines.
The subject of data set [2] is mice infected with E. coli ATCC35218. Format: in vivo. The settings on record: i.v. 20 mg kg^−1 Corramycin in E. coli mouse infection model. The method, then: As bacterial resistance development in minimal media is thought to be more mimetic to an actual infection in vivo, we decided to test the in vivo efficacy of Corramycin in infected mice, despite the poor FoR experiment results in the rich medium. The mice were first infected intraperitoneally with E. coli ATCC35218 and subsequently treated with different doses of Corramycin ranging from a total of 10 to 30 mg per kg body weight divided into two doses, 1 hour and 3 hours after infection.
Figure 4 In vivo antibacterial activity of Corramycin in infected mice. A) Colony forming unit (CFU) load of E. coli ATCC35218 in blood 4 hours post infection with 2.10^7 CFU. 5 mice per dose were used. […]; Tienam: Imipenem/Cilastatin treatment (positive control, dark grey bar); Corramycin treatment with different doses (light blue, blue and dark blue bars). B) Survival rate [in %] of 10 mice per dose 3, 6, 24, 48, 72 and 96 hours post infection.
13.2 Complementation of SbmA and YejEF in the E. coli deletion mutant […]
14.1 Infection of the test animals and treatment with Corramycin in vivo For the in vivo infection and antibiotic treatment experiments a total of 75 male Swiss albino mice, divided into five groups with 15 animals, were used. Before infecting the test animals, the weight of each animal was determined (Suppl. Raw Data 1). […]

Data set [3] has as its system Salmonella typhimurium ATCC13311. Format: cell-based. The note with it: strain ATCC13311; CAMHB, CLSI/EUCAST broth microdilution, 5x10^5 CFU mL-1, 20-22 h, duplicates. The method, then: (§1) 5. Determination of the minimal inhibitory concentration (MIC) in vitro The MIC of Corramycin was evaluated following the Clinical & Laboratory Standard Institute (CLSI; https://clsi.org) and EUCAST (https://eucast.org) guidelines. First, inoculi of the bacterial test strains were prepared by culturing isolated colonies in cation-adjusted Müller Hinton broth (CAMHB; 2 g L-1 beef infusion solids, 1.5 g L-1 starch, 17.5 g L-1 casein hydrolysates, final pH 7.4) at 37 °C and 180 rpm for 18 h. Next, Corramycin, which was dissolved in DMSO, was transferred into the first row of a 96-well plate to reach an end concentration of 64 µg mL-1 (in 100 µL total volume). A 1:1 serial dilution in cation-adjusted Mueller Hinton broth (CAMHB) of the test compound was done from the top row to the bottom row of the 96-well plate to reach an end concentration of 0.125 µg mL-1 in the bottom row. Afterwards, the respective test strains were transferred into the wells, reaching a total volume of 100 µL and 5x10^5 colony-forming units (CFU) mL-1. After a 20 to 22 h of incubation, the optical density was evaluated on a microplate reader and the MIC endpoint was determined as the lowest concentration of antibiotic at which there was no visible growth observed. Each MIC experiment was performed in duplicates. Table S 4 depicts the MIC values of Corramycin against all bacterial strains tested in this study. […]
A general note: In broth dilution the organism is exposed to a series of concentrations in liquid medium.

For data set [4], the system named is Klebsiella pneumoniae 1705966. It counts as cell-based. The note with it: strain 1705966; CAMHB, CLSI/EUCAST broth microdilution, 5x10^5 CFU mL-1, 20-22 h, duplicates. As to the method:
as §1

Data set [5] has as its system Enterobacter cloacae 17059482. Format: cell-based. The note with it: strain 17059482; CAMHB, CLSI/EUCAST broth microdilution, 5x10^5 CFU mL-1, 20-22 h, duplicates. The method, then: (§2) 5. Determination of the minimal inhibitory concentration (MIC) in vitro The MIC of Corramycin was evaluated following the Clinical & Laboratory Standard Institute (CLSI; https://clsi.org) and EUCAST (https://eucast.org) guidelines. First, inoculi of the bacterial test strains were prepared by culturing isolated colonies in cation-adjusted Müller Hinton broth (CAMHB; 2 g L-1 beef infusion solids, 1.5 g L-1 starch, 17.5 g L-1 casein hydrolysates, final pH 7.4) at 37 °C and 180 rpm for 18 h. Next, Corramycin, which was dissolved in DMSO, was transferred into the first row of a 96-well plate to reach an end concentration of 64 µg mL-1 (in 100 µL total volume). A 1:1 serial dilution in cation-adjusted Mueller Hinton broth (CAMHB) of the test compound was done from the top row to the bottom row of the 96-well plate to reach an end concentration of 0.125 µg mL-1 in the bottom row. Afterwards, the respective test strains were transferred into the wells, reaching a total volume of 100 µL and 5x10^5 colony-forming units (CFU) mL-1. After a 20 to 22 h of incubation, the optical density was evaluated on a microplate reader and the MIC endpoint was determined as the lowest concentration of antibiotic at which there was no visible growth observed. Each MIC experiment was performed in duplicates. Table S 4 depicts the MIC values of Corramycin against all bacterial strains tested in this study.
(§3) Table S 4. MIC values of Corramycin against all bacterial strains tested in this study. […]

The subject of data set [6] is Enterococcus faecium A6349. Format: cell-based. The note with it: strain A6349; CAMHB, CLSI/EUCAST broth microdilution, 5x10^5 CFU mL-1, 20-22 h, duplicates. The method, then: as §2, §3
Data set [7] has as its system Enterobacter cloacae DSM46348. It counts as cell-based. The note with it: strain DSM46348; CAMHB, CLSI/EUCAST broth microdilution, 5x10^5 CFU mL-1, 20-22 h, duplicates. As to the method: as §2, §3

SMILES strings stand for the structures. Converted amounts (≈) assume the structure as drawn. *1 amine or outer side, *2 acyl side, *3 side chain or, on linkers, in order; H or OH if unused. Where a SMILES comes first, the peptide text is derived from it. [ ]: non-standard residue; d: D form. The star is where a group is joined. Ava(2S,3R-(OH)2,4S-OMe) = CO[C@@H](CN[*:1])[C@H](O)[C@H](O)C(=O)[*:2]; dHis(βS-OH,π-Me) = Cn1cncc1[C@@H](O)[C@@H](N)C(=O)O; Butanoyl(2R-OH,3S-OH) = C[C@H](O)[C@@H](O)C(=O)*; Val(3-OH) = CC(C)(O)[C@H](N)C(=O)O; NMeF = CN[C@@H](Cc1ccccc1)C(=O)O

As for `CO[C@@H](CNC(=O)[C@H](NC(=O)[C@H](O)[C@H](C)O)[C@H](O)c1cncn1C)[C@H](O)[C@H](O)C(=O)N(C)[C@@H](Cc1ccccc1)C(=O)NCC(=O)N[C@H](C(=O)N[C@@H](CO)C(=O)N[C@H](C(=O)N[C@@H](CC(C)C)C(=O)N[C@@H](CO)C(=O)O)C(C)(C)O)C(C)(C)O` [Corramycin] ({Butanoyl(2R-OH,3S-OH)}-[dHis(βS-OH,π-Me)][Ava(2S,3R-(OH)2,4S-OMe)][NMeF]G[Val(3-OH)]S[Val(3-OH)]LS-OH), the Cytotoxicity result in data set [1] is “no cytotoxicity”. For the same compound, in data set [2], the “Toxic side effects in mice” value is given as “without toxic side effects”. The MIC is 4 µg/mL (≈ 3.38 µM) in data set [3]; more than 64 µg/mL in data set [4]; more than 64 µg/mL in data set [5]; more than 64 µg/mL in data set [6]; 32 µg/mL (≈ 27 µM) in data set [7].

For orientation: MIC means the least concentration at which growth counts as inhibited.

Source of the values: PMC10099666, “Structure Elucidation, Total Synthesis, Antibacterial In Vivo Efficacy and Biosynthesis Proposal of Myxobacterial Corramycin” (Angewandte Chemie (International Ed. in English), 2022).
